The target in the assay is T1, recombinant hDHFR (human dihydrofolate reductase) (Homo sapiens, UniProt P00374).
T1 construct: gene DHFR
T1 sequence (P00374 1-187): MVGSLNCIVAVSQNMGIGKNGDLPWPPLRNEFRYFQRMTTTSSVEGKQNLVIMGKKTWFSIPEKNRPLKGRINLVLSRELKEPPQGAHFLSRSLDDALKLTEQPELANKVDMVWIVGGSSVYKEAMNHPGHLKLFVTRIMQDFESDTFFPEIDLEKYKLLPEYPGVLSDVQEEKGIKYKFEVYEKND
Briefly: in vitro DHFR enzyme activity assay, dose-response. Type of assay: biochemical.

pIC50: −log10 of the molar value.

For `CCc1nc(N)nc(N)c1-c1cc(Cl)cc(Cl)c1` [WCDD114], the pIC50 (commonly the IC50 on a negative log10 scale, so that one unit is a factor of ten) was 6.85.

These data come from PMC12495326 (The Journal of Biological Chemistry, 2025).
